Tests used:
[1] = molecular target: ALK tyrosine kinase receptor (Homo sapiens, UniProt Q9UM73); test: Inhibition of wild type ALK (unknown origin)
[2] = Inhibition of ALK L1196M/G1202R mutant (unknown origin); parameters: species or system Homo sapiens
[3] = molecular target: ALK tyrosine kinase receptor (Homo sapiens, UniProt Q9UM73, G1202R); test: Inhibition of ALK G1202R mutant (unknown origin)
KARPAS-299 = test: Antiproliferative activity against human KARPAS-299 cells assessed as cell growth inhibition by CCK-8 assay
[4] = Antiproliferative activity against mouse Ba/F3 EML4-ALK-G1202R cells assessed as cell growth inhibition by CCK-8 assay; format: functional, cell-based
BaF3 = test: Antiproliferative activity against EML4-ALK-L1196M/G1202R mutated mouse BaF3 cells assessed as cell growth inhibition by CCK-8 assay; format: functional, cell-based
[5] = Metabolic stability in human liver microsomes assessed as parent compound remaining measured after 60 mins; format: ADME, Microsome; details: read-out: Stability
[6] = Metabolic stability in human liver microsomes assessed as clearance; format: ADME, Microsome; details: read-out: CLH
[7] = Metabolic stability in human liver microsomes assessed as half life; format: ADME, Microsome

ALK tyrosine kinase receptor (Homo sapiens, UniProt Q9UM73, G1202R), sequence (Q9UM73 19-1620 G1202R limits assumed): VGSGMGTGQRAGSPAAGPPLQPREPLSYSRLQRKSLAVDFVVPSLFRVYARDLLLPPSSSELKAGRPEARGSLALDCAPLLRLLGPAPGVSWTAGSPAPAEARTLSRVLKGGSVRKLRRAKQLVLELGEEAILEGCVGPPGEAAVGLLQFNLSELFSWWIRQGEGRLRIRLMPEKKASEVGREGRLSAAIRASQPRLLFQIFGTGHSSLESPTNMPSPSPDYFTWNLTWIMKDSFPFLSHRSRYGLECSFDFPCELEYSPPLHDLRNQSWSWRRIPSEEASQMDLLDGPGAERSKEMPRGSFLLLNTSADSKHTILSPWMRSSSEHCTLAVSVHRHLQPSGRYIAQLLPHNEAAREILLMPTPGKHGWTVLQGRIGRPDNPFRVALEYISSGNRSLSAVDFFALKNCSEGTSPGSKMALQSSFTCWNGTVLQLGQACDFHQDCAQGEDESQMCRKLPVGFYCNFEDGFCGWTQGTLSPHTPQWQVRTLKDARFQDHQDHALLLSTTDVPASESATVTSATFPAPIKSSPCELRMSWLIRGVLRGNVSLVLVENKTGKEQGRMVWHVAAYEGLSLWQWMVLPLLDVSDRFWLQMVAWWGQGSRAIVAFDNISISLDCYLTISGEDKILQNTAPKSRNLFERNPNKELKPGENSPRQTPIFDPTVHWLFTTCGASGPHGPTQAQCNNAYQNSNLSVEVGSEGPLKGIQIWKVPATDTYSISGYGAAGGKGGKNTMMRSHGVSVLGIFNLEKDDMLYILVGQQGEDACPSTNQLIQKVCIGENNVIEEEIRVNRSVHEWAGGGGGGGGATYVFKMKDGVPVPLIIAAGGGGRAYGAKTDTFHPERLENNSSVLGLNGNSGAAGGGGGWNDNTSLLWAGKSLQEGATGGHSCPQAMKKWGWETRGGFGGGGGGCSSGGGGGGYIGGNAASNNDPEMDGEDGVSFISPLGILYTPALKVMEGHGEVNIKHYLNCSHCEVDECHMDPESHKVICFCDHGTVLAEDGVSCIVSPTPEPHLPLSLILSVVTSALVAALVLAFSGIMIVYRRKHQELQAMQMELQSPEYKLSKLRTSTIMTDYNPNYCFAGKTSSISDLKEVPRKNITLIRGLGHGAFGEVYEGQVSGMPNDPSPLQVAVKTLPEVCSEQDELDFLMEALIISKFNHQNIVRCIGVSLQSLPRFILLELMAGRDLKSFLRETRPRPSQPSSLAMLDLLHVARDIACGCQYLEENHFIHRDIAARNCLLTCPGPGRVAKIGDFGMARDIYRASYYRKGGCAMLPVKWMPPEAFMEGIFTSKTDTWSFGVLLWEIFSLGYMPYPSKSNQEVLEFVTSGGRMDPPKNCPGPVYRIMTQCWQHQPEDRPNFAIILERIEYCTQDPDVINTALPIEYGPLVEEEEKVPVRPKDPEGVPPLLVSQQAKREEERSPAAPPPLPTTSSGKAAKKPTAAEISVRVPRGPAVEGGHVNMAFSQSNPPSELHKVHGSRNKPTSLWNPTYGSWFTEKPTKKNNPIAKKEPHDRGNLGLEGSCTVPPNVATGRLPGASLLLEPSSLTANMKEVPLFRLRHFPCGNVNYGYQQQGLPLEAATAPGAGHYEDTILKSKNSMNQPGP
ALK tyrosine kinase receptor (Homo sapiens, UniProt Q9UM73), sequence (Q9UM73 whole entry): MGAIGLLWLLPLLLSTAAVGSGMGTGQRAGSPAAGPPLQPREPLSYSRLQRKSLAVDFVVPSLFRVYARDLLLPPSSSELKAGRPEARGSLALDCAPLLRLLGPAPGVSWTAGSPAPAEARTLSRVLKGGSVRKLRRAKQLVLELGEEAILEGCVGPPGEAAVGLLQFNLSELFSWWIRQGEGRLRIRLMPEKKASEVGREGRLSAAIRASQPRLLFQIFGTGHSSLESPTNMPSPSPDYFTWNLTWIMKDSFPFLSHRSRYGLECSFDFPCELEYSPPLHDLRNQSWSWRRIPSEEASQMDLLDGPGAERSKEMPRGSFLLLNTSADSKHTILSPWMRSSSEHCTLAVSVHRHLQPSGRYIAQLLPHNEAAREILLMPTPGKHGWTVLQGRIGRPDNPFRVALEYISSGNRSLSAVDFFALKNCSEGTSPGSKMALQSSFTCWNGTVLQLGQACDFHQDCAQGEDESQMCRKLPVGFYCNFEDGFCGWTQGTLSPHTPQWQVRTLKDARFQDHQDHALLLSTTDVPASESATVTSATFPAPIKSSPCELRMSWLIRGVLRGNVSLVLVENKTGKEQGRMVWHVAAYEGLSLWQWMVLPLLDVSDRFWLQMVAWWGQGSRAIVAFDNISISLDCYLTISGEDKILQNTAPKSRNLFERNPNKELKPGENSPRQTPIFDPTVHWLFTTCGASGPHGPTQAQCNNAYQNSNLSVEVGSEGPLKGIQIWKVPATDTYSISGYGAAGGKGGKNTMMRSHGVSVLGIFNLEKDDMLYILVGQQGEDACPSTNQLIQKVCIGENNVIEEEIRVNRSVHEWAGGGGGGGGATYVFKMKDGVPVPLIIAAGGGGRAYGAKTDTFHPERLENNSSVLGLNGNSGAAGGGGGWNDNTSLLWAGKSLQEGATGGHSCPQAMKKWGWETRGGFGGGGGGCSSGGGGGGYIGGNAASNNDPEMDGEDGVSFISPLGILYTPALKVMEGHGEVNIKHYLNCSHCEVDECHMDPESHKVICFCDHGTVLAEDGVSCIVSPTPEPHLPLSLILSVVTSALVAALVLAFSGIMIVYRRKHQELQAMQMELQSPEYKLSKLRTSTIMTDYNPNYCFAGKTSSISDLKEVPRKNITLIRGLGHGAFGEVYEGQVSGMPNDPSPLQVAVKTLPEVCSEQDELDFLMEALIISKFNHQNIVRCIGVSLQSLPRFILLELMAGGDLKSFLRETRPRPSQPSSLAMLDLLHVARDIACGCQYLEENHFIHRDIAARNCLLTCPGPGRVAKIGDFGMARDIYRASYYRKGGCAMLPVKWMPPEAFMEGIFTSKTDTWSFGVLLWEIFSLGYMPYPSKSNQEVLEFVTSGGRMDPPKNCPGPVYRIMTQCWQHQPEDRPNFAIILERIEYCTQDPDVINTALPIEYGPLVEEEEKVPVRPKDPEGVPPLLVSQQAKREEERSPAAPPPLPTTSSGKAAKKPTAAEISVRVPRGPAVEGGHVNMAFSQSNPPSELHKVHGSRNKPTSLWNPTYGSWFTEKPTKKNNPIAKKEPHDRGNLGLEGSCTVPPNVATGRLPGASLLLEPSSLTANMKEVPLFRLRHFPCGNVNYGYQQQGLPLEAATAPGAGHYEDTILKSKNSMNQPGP

| SMILES | IC50 [1] [nM] | IC50 [2] [nM] | IC50 [3] [nM] | IC50 (KARPAS-299) [nM] | IC50 (BaF3) [nM] | remaining at 1 h [5] [%] | microsomal CLint [6] [µL/min/mg] | half-life [7] [min] | IC50 [4] [nM] |
| --- | --- | --- | --- | --- | --- | --- | --- | --- | --- |
| Cc1cc2ncc3n2nc1N[C@H](C)c1cc(F)ccc1OCC1(CC1)NC3=O | 18 | 85 | 47 | – | – | – | – | – | – |
| CC1(C)COc2ccc(F)cc2CN(C2CC2)c2ccc3ncc(n3n2)C(=O)N1 | 77 | 309 | 82 | – | – | – | – | – | – |
| C=CC[C@H]1Nc2ccc3ncc(n3n2)C(=O)NC2(CC2)COc2ccc(F)cc21 | 9.7 | 34.4 | 64 | – | – | – | – | – | – |
| C[C@H]1Nc2ccc3ncc(n3n2)C(=O)NC2(CCC2)COc2ccc(F)cc21 | 7.6 | 18 | 4.7 | – | – | – | – | – | – |
| CCN1Cc2cc(F)ccc2OCC(C)(C)NC(=O)c2cnc3ccc1nn23 | 27 | 84 | 22 | – | – | – | – | – | – |
| C[C@H]1Nc2ccc3ncc(n3n2)C(=O)NCCOc2ccc(F)cc21 | 13 | 59 | 28 | – | – | – | – | – | – |
| CC1(C)COc2ccc(F)cc2CNc2ccc3ncc(n3n2)C(=O)N1 | 19 | 37 | 20 | – | – | – | – | – | – |
| C[C@H]1Nc2ccc3ncc(n3n2)C(=O)NC2(CC2)COc2ccc(Cl)cc21 | 29 | 105 | 56 | – | – | – | – | – | – |
| C[C@H]1CNC(=O)c2cnn3ccc(nc23)N[C@H](C)c2cc(F)ccc2O1 [REPOTRECTINIB] | – | 20 | – | 40 | 208 | 46.1 | 25.6 | 54.1 | 164 |
| CC(C)N1Cc2cc(F)ccc2OCC(C)(C)NC(=O)c2cnc3ccc1nn23 | 99 | 328 | 145 | – | – | – | – | – | – |
| C[C@H]1CNC(=O)c2cnc3ccc(nn23)N[C@H](C)c2cc(F)ccc2O1 | 5.1 | 22 | 11 | 72 | 147 | – | – | – | 84 |
| C[C@H]1Nc2ccc3ncc(n3n2)C(=O)NC2(CC2)COc2ccccc21 | 27 | 173 | 98 | – | – | – | – | – | – |

The next lines start with results.

| IC50 [1] [nM] | IC50 [2] [nM] | IC50 [3] [nM] | IC50 (KARPAS-299) [nM] | IC50 (BaF3) [nM] | remaining at 1 h [5] [%] | microsomal CLint [6] [µL/min/mg] | half-life [7] [min] | SMILES | IC50 [4] [nM] |
| --- | --- | --- | --- | --- | --- | --- | --- | --- | --- |
| 25 | 95 | 19 | – | – | – | – | – | CN1Cc2cc(F)ccc2OCC(C)(C)NC(=O)c2cnc3ccc1nn23 | – |
| 8.3 | 26 | 6.4 | – | – | – | – | – | C[C@H]1Nc2ccc3ncc(n3n2)C(=O)NC(C)(C)COc2ccc(F)cc21 | – |
| 415 | – | 1000 | – | – | – | – | – | CCC[C@H]1Nc2ccc3ncc(n3n2)C(=O)NC2(CC2)COc2ccc(F)cc21 | – |
| 373 | 984 | 993 | – | – | – | – | – | C[C@H]1Nc2ccc3ncc(n3n2)C(=O)NC2(CC2)COc2cc(F)ccc21 | – |
| 4.2 | 24 | 8 | 39 | 76 | 28.8 | 41 | 33.8 | C[C@H]1Nc2ccc3ncc(n3n2)C(=O)NC2(CC2)COc2ccc(F)cc21 | 56 |
| 482 | – | 1000 | – | – | – | – | – | C[C@@H]1Nc2ccc3ncc(n3n2)C(=O)NC2(CC2)COc2ccc(F)cc21 | – |
| 159 | 442 | 200 | – | – | – | – | – | CC1(C)COc2ccc(F)cc2CN(C2CCC2)c2ccc3ncc(n3n2)C(=O)N1 | – |

From ChEMBL document CHEMBL5257114, “Discovery of imidazo[1,2-b]pyridazine macrocyclic derivatives as novel ALK inhibitors capable of combating multiple resistant mutants” (Bioorg Med Chem Lett, 2023)
